These results are taken from patent US7105529B2, “Substituted oxindole derivatives as protein tyrosine and as protein serine/threonine kinase inhibitors and compositions and methods of treating chemotherapy and radiation therapy side effects” (SmithKline Beecham Corporation, priority 1997, dated 2006).

One assay has as its target CDK2 (Homo sapiens, UniProt P24941). Briefly: CDK2 substrate phosphorylation assay. Format: biochemical.
For assay [1], the system named is RKO colon adenocarcinoma cells. As to the kind of experiment: FACS assay (cell death), RKO. The assay is classed as cell-based. The conditions noted are these: Homo sapiens; 50% cell death, 72 h. As for the experimental part: (§1) These assays allow determination of both cell death and changes in cell cycle profile in cells following treatment of the compound. The assay is performend as follows: • 1. Cells are incubated in DMEM to which 10% FCS has been added in a humidified incubator at 37° C. and 5% by volume of CO2 in air. The cells are innoculated in 6-well plates at a density of 0.5–5×10^5 cells per well. • 2. The test compound is added in serial dilutions 24–36 h after plating in 0.5% DMSO. The plates are then incubated a further 72 h in the presence of the compound. During this time, cells in control cultures undergo at least three cell divisions. • 3. After incubation, the media is collected and cells are harvested by trypsinization. The cells and media are pooled and pelleted by centrifugation. • 4. The cell pellet is fixed in a final volume of 3 mL of 50% ice cold MeOH and incubated for a minimum of 30 min at −20° C. • 5. The cells are pelleted by centrifugation and resuspended in 0.5 mL PBS containing 1%FCS, […] Propidium Iodide (PI) and […] RNase A and incubated 30 min at 37° C. in the dark. • 6. The samples are analysed by flow cytometry using the relative incorporation of PI as a measure of DNA content of each cell. The % Dead cells is recorded as % of events with less than 2N DNA. […] HDF are normal diploid fibroblast cells. […]
(In flow cytometry, cells or beads pass a laser one at a time.)

Another assay deals with cSrc (Homo sapiens, UniProt P12931). As to the kind of experiment: Src kinase assay (ELISA or isotope format). Format: biochemical. As for the experimental part: The peptide substrates used in Src and Lck assays were biotin-aminohexyl-EEIYGEF-NH2 (Src) and biotin-aminohexyl-[…]-NH2 (Lck). The src and Ick proteins were purified to homogeneity from a baculovirus expression system and preactivated before adding to assay mixtures. The maximum activation was achieved by incubating concentrated enzyme ([…]) on ice for 40 min in the presence of 1 mM ATP and 10 mM MgCl2 in 100 mM HEPES, pH 7.5. The activated enzyme was diluted to 2 nM into a […] reaction mixture containing 100 mM HEPES, pH 7.5, 5 mM ATP, 10 mM MgCl2, 2 mM peptide, 0.05 mg/mL BSA, and an inhibitor at varying concentrations and with or without 8 mCi/mL [γ-^33P]ATP dependent upon the method of analysis for the extent of reaction. The controls were reactions in the presence (negative controls) or absence (positive controls) of 50 mM EDTA. Reactions were allowed to proceed for 30 min at room temperature and quenched with addition of EDTA to 50 mM in […]. The extent of reactions was analyzed in one of the two ways: an Elisa-based and a radioactive isotope-based. The quenched samples ([…]) were transferred to a neutravidin coated plate (Perice) and incubated at room temperature for 40 min to allow biotinylated peptide to bind to neutravidin. […] The plate was read at A625 in a plate reader. […] The plate was sealed and counted in a micro-b-counter (Wallac). […]

The next assay has as its target Lck (Homo sapiens, UniProt P06239). Briefly: Lck kinase assay (ELISA or isotope format). Format: biochemical. (An ELISA detects its analyte on a solid surface through an enzyme-linked reagent.)
A further assay concerns the target T1, UL97 (Human cytomegalovirus, UniProt P16788).
T1 construct: GST; made in house; host or cells: sf9 cells (baculovirus vector)
As to the kind of experiment: UL97 protein kinase assay (32P transfer to histone H2B). Format: biochemical. As for the experimental part:
UL97 was produced as a GST fusion protein from a baculovirus vector expressed in sf9 cells as described by He (He, et al., Journal of Virology 1997, 71, 405–11). UL97 was assayed as a protein kinase using ^32P transfer from ATP to histone H2B with detection of radiolabeled histone bound to phosphocellulose. Assay mixes for testing inhibitors of UL97 activity contained 2 mM [γ^32P]-ATP, 15 mM histone H2B, 50 mM sodiumCHES, pH 9.5, 1 M NaCl, 2 mM dithiothreitol and 10 mM MgCl2. Inhibitors were dissolved in diluted DMSO to give a final DMSO concentration in the reaction of 1% DMSO. After incubation at 20° C., the reactions were terminated by addition of 10 volumes of 75 mM phosphoric acid, 30 mM ATP, 1 mM EDTA, then were spotted onto phosphocellulose filters and washed four times with 75 mM phosphoric acid. Radioactivity was determined by liquid scintillation counting.

The target in another assay is VEGFR-2 (Homo sapiens, UniProt P35968). As to the kind of experiment: VEGFR-2 kinase assay. The settings on record: read-out: VEGFR2 (IC50). The assay is classed as biochemical.
In a further assay the test system is MES/SA cells. As to the kind of experiment: FACS assay (cell death), MES/SA. The assay is classed as cell-based. The settings on record: Homo sapiens, 50% cell death, 72 h. As for the experimental part:
as §1

Sequence of Lck (P06239 whole entry): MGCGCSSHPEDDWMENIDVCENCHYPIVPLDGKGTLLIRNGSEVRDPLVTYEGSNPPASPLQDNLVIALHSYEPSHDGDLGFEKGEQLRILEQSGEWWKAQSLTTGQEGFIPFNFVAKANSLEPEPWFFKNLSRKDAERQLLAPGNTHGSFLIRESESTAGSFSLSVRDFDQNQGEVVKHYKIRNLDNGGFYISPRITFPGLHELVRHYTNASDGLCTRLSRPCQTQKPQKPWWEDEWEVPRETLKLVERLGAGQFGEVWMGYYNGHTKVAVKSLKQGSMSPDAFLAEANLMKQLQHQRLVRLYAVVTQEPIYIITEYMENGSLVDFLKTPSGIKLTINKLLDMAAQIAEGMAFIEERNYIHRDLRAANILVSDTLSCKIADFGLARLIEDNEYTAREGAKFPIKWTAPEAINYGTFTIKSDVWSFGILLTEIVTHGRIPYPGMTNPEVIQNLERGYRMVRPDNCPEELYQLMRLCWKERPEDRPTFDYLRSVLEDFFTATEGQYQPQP
T1 sequence (P16788 whole entry): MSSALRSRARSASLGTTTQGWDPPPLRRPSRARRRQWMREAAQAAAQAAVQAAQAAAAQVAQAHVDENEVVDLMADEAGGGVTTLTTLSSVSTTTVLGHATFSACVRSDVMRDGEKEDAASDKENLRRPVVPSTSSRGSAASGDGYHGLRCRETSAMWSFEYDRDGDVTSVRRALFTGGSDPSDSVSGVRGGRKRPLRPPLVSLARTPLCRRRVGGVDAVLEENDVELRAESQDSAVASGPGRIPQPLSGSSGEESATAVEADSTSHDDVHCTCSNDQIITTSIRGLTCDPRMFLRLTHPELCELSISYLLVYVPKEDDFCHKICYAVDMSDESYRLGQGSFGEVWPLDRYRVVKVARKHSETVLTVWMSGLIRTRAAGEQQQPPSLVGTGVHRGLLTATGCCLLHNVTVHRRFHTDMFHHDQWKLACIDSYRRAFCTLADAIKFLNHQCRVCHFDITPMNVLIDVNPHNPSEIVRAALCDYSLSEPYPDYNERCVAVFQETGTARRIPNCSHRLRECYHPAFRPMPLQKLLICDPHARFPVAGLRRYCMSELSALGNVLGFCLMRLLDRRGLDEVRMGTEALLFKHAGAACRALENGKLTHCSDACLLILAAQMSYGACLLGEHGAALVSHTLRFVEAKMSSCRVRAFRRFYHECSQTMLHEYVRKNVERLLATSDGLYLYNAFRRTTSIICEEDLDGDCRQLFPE
Sequence of VEGFR-2 (P35968 834-1162 limits assumed): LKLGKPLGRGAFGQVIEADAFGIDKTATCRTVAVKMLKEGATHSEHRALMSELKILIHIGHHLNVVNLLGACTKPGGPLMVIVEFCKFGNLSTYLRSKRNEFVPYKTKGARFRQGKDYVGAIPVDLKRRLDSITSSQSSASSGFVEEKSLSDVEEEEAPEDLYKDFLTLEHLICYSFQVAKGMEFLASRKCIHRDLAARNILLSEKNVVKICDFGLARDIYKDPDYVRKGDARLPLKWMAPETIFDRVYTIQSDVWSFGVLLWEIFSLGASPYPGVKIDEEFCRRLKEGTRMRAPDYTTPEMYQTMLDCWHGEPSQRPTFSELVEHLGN
Sequence of cSrc (P12931 whole entry): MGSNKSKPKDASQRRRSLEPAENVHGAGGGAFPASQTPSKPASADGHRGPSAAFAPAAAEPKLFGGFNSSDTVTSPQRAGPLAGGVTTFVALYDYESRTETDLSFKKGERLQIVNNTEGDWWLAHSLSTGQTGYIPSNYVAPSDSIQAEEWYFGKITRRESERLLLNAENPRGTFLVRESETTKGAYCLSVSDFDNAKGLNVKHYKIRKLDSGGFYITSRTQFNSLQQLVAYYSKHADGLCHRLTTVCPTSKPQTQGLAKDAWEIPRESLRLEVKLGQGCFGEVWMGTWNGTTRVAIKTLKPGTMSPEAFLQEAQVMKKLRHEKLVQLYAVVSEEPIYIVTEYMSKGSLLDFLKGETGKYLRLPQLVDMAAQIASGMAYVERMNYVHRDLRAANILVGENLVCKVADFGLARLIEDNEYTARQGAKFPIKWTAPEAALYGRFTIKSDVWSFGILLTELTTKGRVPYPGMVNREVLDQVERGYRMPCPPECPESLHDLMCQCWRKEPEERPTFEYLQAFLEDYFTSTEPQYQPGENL
Procedure for CDK2: CDK1 and CDK2 were both expressed utilizing a baculovirus expression system and were partially purified to comprise 20–80% of total protein, with no detectable competing reactions present. […] Reactions were terminated with 0.2–2 volumes of either 20% acetic acid or 50–100 mM EDTA buffered to pH 7 (substrate consumption <20%). The buffer employed in enzyme assays was either 30 mM HEPES 7.4 containing 0.15 M NaCl and 5% DMSO, the buffer 50 mM MOPS 7.0 containing 0.15 M NaCl and 5% DMSO, or the buffer 100 mM HEPES pH 7.5 containing 0.1 mg/mL BSA and 5% DMSO. Inhibitors were diluted in 100% DMSO prior to addition into the assay. Detection of peptide phosphorylation was accomplished by scintillation counting following either collection of peptide onto phosphocellulose filters (for reactions stopped with acetic acid), collection of peptide in wells of 96 well plates coated with Streptavidin (Pierce) (reactions were stopped with EDTA), or addition of Avidin coated Scintillant impregnated beads (Scintillation Proximity Assays from Amersham, reactions were stopped with EDTA).
CDK1 and CDK2 were both expressed utilizing a baculovirus expression system and were partially purified to comprise 20–80% of total protein, with no detectable competing reactions present. […]
Procedure for Lck: The src and Ick proteins were purified to homogeneity from a baculovirus expression system and preactivated before adding to assay mixtures. The maximum activation was achieved by incubating concentrated enzyme (10–30 mM) on ice for 40 min in the presence of 1 mM ATP and 10 mM MgCl2 in 100 mM HEPES, pH 7.5. The activated enzyme was diluted to 2 nM into a 50-mL reaction mixture containing 100 mM HEPES, pH 7.5, 5 mM ATP, 10 mM MgCl2, 2 mM peptide, 0.05 mg/mL BSA, and an inhibitor at varying concentrations and with or without 8 mCi/mL [γ-^33P]ATP dependent upon the method of analysis for the extent of reaction. The controls were reactions in the presence (negative controls) or absence (positive controls) of 50 mM EDTA. Reactions were allowed to proceed for 30 min at room temperature and quenched with addition of EDTA to 50 mM in 220 mL. The extent of reactions was analyzed in one of the two ways: an Elisa-based and a radioactive isotope-based. The quenched samples (200 mL) were transferred to a neutravidin coated plate (Perice) and incubated at room temperature for 40 min to allow biotinylated peptide to bind to neutravidin. The unbound peptide and the rest of the solution was washed away using a plate washer. […] The plate was read at A625 in a plate reader. […] The plate was sealed and counted in a micro-b-counter (Wallac). […]
Procedure for VEGFR-2: The kinase domain of the enzyme was purified to homogeneity from a baculovirus expression system. The enzyme was preactivated on ice for 15 min in the presence of 100 μM ATP and 20 mM MgCl2, and stored at −80° C. until needed for assay. The activated enzyme was diluted to 0.4 nM into a 60 μl reaction containing 100 mM HEPES, pH 7.5, 5 μM ATP, 10 mM MgCl2, 5 μM peptide, 0.1 mM DTT, 0.05 mg/ml BSA, and an inhibitor at varying concentrations. The controls were reactions in the presence (negative controls) or absence (positive controls) of 50 mM EDTA. Reactions were incubated for 30 min at room temperature, and then quenched by the addition of EDTA to 60 mM in 210 μl. The quenched samples (190 μl) were transferred to a neutravidin-coated plate (Pierce) and incubated at room temperature for 40 min to allow biotinylated peptide to bind to the neutravidin. The unbound components of the reaction were removed by washing with a plate washer, then 200 μl HRP-PY20 anti-phosphotyrosine antibody conjugate was added to each well. After incubation for 40 min, the plate was washed to remove any unbound anitbody. A HRP substrate, K-blue (Neogen) was added and the reaction was quenched with Red Stop (Neogen) after 20 min. The absorbance of the wells was read at A650 in a plate reader. IC50 values were obtained by fitting raw data to A650=VMAX*(1−[I]/IC50+[I])))+b, where b is background.

A word on the IC50: it is the concentration that inhibits the measured activity by half. As for `COC(=O)c1ccc2c(c1)/C(=C/Nc1ccc(S(N)(=O)=O)cc1)C(=O)N2` [Example 27], the results for the IC50 (on CDK2; in assay [1]) were 1 to 10 nM and 1100 to 5000 nM, respectively.
In the case of `NS(=O)(=O)c1ccc(NN=C2C(=O)Nc3ccc(-c4cnco4)cc32)cc1` [Example 36], the IC50 at cSrc was more than 100 nM; at Lck, more than 100 nM; against UL97 it was 11 to 50 nM; at VEGFR-2, more than 100 nM; in the assay on MES/SA cells, 100 to 500 nM.
